Results from patent US8017629B2, “Compounds and uses thereof in modulating amyloid β” (Neurogenetic Pharmaceuticals, Inc., priority 2003, dated 2011).
pEC50: −log10 of the molar value.

tested on: Aβ42 levels in the extracellular medium; assay: FRET (HTRF) assay, Aβ42 level of the extracellular medium of SH-SY5Y-APP cells; type: cell-based; conditions: Homo sapiens, concentration at which reduction of Aβ42 level was half of the maximum reduction, read-out: Ab42 Potency
Experimental: Compounds were evaluated for activity in modulating Aβ42 and Aβ40 levels in the extracellular medium using a homogeneous time-resolved fluorescence (HTRF) assay as follows.
For the HTRF assay, either 5 or 10 μl of supernatant from treated cells was added to 10 or 15 μl of labeled antibody pairs, for a total volume of 20 μl, and incubated for 20-24 hours at 4° C. The labeled antibody pairs were either 8000 pg B436-XL665 and 400 pg B113 Europium, for assessing Aβ40 levels, or 8000 pg B436-XL665 and 400 pg A387 Europium, for assessing Aβ42 levels, diluted in 50 mM NaPO4, 0.2% BSA, 0.5M KF, pH 7. The fluorescence was read on a BMG Rubystar at 620 nm and 665 nm.

pEC50	SMILES
6.00 to 6.70	COc1ccc(OC)c(Nc2nc(-c3ccc(-n4cnc(C)c4)cc3)cs2)c1 [Compound 264]
> 6.70	CCN(CC)c1ccc(C)c(Nc2nc(-c3ccc(-n4ccnc4)cc3)cs2)c1 [Compound 265]
5.00 to 5.29	CSc1cccc(Nc2nc(-c3ccc(-n4cnc(Br)c4)cc3)cs2)c1 [Compound 266]
5.30 to 5.96	COc1cc(C)c(Nc2nc(-c3ccc(-n4cnc(C)c4)cc3)cs2)cc1OC [Compound 267]
> 6.70	CCN(CC)c1ccc(C)c(Nc2nc(-c3ccc(-n4cnc(C)c4)cc3)cs2)c1 [Compound 268]
5.00 to 5.29	Cc1cn(-c2ccc(-c3csc(Nc4cc(C)c(O)cc4C)n3)cc2)cn1 [Compound 269]
> 6.70	CCN(CC)c1ccc(C)c(Nc2nc(-c3ccc(-n4cnc(C)c4)nc3)cs2)c1 [Compound 270]
> 6.70	CCOc1cc(C)c(Nc2nc(-c3ccc(-n4cnc(C)c4)cc3)cs2)cc1C [Compound 271]
6.00 to 6.70	CCc1cn(-c2ccc(-c3csc(Nc4ccc(N(CC)CC)cc4C)n3)cc2)cn1 [Compound 272]
6.00 to 6.70	CCN(CC)c1ccc(N(CC)c2nc(-c3ccc(-n4cnc(C)c4)cc3)cs2)c(C)c1 [Compound 273]
5.30 to 5.96	CCN(CC)c1ccc(Nc2nc(-c3ccc(-n4cc(C(C)=O)nn4)cc3)cs2)c(C)c1 [Compound 274]
5.30 to 5.96	CCN(CC)c1ccc(Nc2nc(-c3ccc(-n4cc(C(C)O)nn4)cc3)cs2)c(C)c1 (stereo not shown) [Compound 275]
> 6.70	Cc1cn(-c2ccc(-c3csc(Nc4cc(N5CCOCC5)ccc4C)n3)cn2)cn1 [Compound 276]
> 6.70	Cc1cn(-c2ccc(-c3csc(Nc4cc(-n5cccc5)ccc4C)n3)cn2)cn1 [Compound 277]
6.00 to 6.70	Cc1cn(-c2ccc(-c3nc(Nc4cc(-n5cccc5)ccc4C)sc3C)cc2)cn1 [Compound 278]
6.00 to 6.70	Cc1ccc(-n2cccc2)cc1Nc1nc(-c2ccc(-n3cnc(Br)c3)cc2)cs1 [Compound 279]
> 6.70	Cc1cn(-c2ccc(-c3csc(Nc4cc(C)c(OCC5CC5)cc4C)n3)cc2)cn1 [Compound 280]
> 6.70	Cc1cn(-c2ccc(-c3csc(Nc4cc(N5CCSCC5)ccc4C)n3)cn2)cn1 [Compound 281]
> 6.70	Cc1cn(-c2ccc(-c3csc(Nc4cc(N(C)C)ccc4C)n3)cn2)cn1 [Compound 282]
> 6.70	Cc1cn(-c2ccc(-c3csc(Nc4cc(N5CCCCC5)ccc4C)n3)cn2)cn1 [Compound 283]
> 6.70	CCCN(CC)c1ccc(C)c(Nc2nc(-c3ccc(-n4cnc(C)c4)nc3)cs2)c1 [Compound 284]
> 6.70	CCN(CC)c1cc(C)c(Nc2nc(-c3ccc(-n4cnc(C)c4)cc3)cs2)cc1C [Compound 285]
> 6.70	CCN(CC)c1cc(C)c(Nc2nc(-c3ccc(-n4cnc(C)c4)nc3)cs2)cc1C [Compound 286]
> 6.70	CCOc1cc(C)c(Nc2nc(-c3ccc(-n4cnc(C)c4)nc3)cs2)cc1C [Compound 287]
> 6.70	CCN(CC)c1cc(Nc2nc(-c3ccc(-n4cnc(C)c4)cc3)cs2)c(C)cc1C [Compound 288]
> 6.70	CCN(CC)c1cc(Nc2nc(-c3ccc(-n4cnc(C)c4)nc3)cs2)c(C)cc1C [Compound 289]
> 6.70	CCOc1cc(C)c(Nc2nc(-c3ccc(-n4ccnc4)cc3)cs2)cc1C [Compound 290]

pEC50	SMILES
> 6.70	CCN(CC)c1cc(Nc2nc(-c3ccc(-n4ccnc4)cc3)cs2)c(C)cc1C [Compound 291]
> 6.70	CCN(CC)c1cc(C)c(Nc2nc(-c3ccc(-n4ccnc4)cc3)cs2)cc1C [Compound 292]
6.00 to 6.70	Cc1cn(-c2ccc(-c3csc(Nc4cc(-n5cccc5)ccc4C)n3)cc2)cn1 [Compound 293]
> 6.70	COc1cc(C)c(Nc2nc(-c3ccc(-n4ccnc4)cc3)cs2)cc1C(C)C [Compound 294]
> 6.70	COc1cc(C)c(Nc2nc(-c3ccc(-n4cnc(C)c4)cc3)cs2)cc1C(C)C [Compound 295]
> 6.70	COc1cc(C)c(Nc2nc(-c3ccc(-n4cnc(C)c4)nc3)cs2)cc1C(C)C [Compound 296]
> 6.70	COc1cc(C)c(Nc2nc(-c3ccc(-n4cnc(C)c4)cc3)c(C)s2)cc1C(C)C [Compound 297]
6.00 to 6.70	Cc1ccc(CO)cc1Nc1nc(-c2ccc(-n3ccnc3)cc2)cs1 [Compound 298]
6.00 to 6.70	Cc1cn(-c2ccc(-c3csc(Nc4cc(CO)ccc4C)n3)cc2)cn1 [Compound 299]
6.00 to 6.70	Cc1cn(-c2ccc(-c3csc(Nc4cc(CO)ccc4C)n3)cn2)cn1 [Compound 300]
6.00 to 6.70	Cc1ccc(CO)cc1Nc1nc(-c2ccc(-n3cnc(Br)c3)cc2)cs1 [Compound 301]
6.00 to 6.70	Cc1ccc(C)c(Nc2nc(-c3ccc(-n4ccnc4)cc3)cs2)c1 [Compound 302]
> 6.70	Cc1ccc(C)c(Nc2nc(-c3ccc(-n4cnc(C)c4)cc3)cs2)c1 [Compound 303]
> 6.70	Cc1ccc(N(C)CC2CC2)cc1Nc1nc(-c2ccc(-n3ccnc3)cc2)cs1 [Compound 304]
> 6.70	Cc1cn(-c2ccc(-c3csc(Nc4cc(N(C)CC5CC5)ccc4C)n3)cc2)cn1 [Compound 305]
> 6.70	Cc1cn(-c2ccc(-c3csc(Nc4cc(N(C)CC5CC5)ccc4C)n3)cn2)cn1 [Compound 306]
5.30 to 5.96	CCN(CC)c1ccc(C)c(Nc2nc(-c3ccc(-n4cc(C)cn4)cc3)cs2)c1 [Compound 307]
6.00 to 6.70	COc1cc(C)c(Nc2nc(-c3ccc(-n4cc(C)cn4)cc3)cs2)cc1C(C)C [Compound 308]
> 6.70	CCN(CC)c1ccc(C)c(Nc2nc(-c3ccc(-n4cnc(C)c4)c(F)c3)cs2)c1 [Compound 309]
> 6.70	COc1cc(C)c(Nc2nc(-c3ccc(-n4cnc(C)c4)c(F)c3)cs2)cc1C(C)C [Compound 310]
5.30 to 5.96	CCN(CC)c1ccc(C)c(Nc2nc(-c3ccc(-c4ccoc4)cc3)cs2)c1 [Compound 311]
6.00 to 6.70	CCN(CC)c1ccc(Nc2nc(-c3ccc(-c4ncc(Br)s4)cc3)cs2)c(C)c1 [Compound 312]
> 6.70	CCN(CC)c1ccc(F)c(Nc2nc(-c3ccc(-n4cnc(C)c4)cc3)cs2)c1 [Compound 313]
> 6.70	CCN(CC)c1ccc(F)c(Nc2nc(-c3ccc(-n4cnc(C)c4)nc3)cs2)c1 [Compound 314]
> 6.70	Cc1cn(-c2ccc(-c3csc(Nc4cc(N(C)CC5CC5)ccc4C)n3)cc2F)cn1 [Compound 315]
> 6.70	Cc1ccc(C)c(Nc2nc(-c3ccc(-n4cnc(Br)c4)cc3)cs2)c1 [Compound 316]
6.00 to 6.70	CCCCN(CC)c1ccc(C)c(Nc2nc(-c3ccc(-n4cnc(C)c4)nc3)cs2)c1 [Compound 317]

pEC50	SMILES
> 6.70	CCOc1cc(C)c(Nc2nc(-c3ccc(-n4ccnc4)nc3)cs2)cc1C [Compound 318]
> 6.70	COc1cc(C)c(Nc2nc(-c3ccc(-n4ccnc4)nc3)cs2)cc1C(C)C [Compound 319]
> 6.70	CCN(CC)c1cc(Nc2nc(-c3ccc(-n4ccnc4)nc3)cs2)c(C)cc1C [Compound 320]
6.00 to 6.70	COc1cc(C)c(Nc2nc(-c3ccc(N4CCN(C)CC4)cc3)cs2)cc1C(C)C [Compound 321]
5.30 to 5.96	CCOc1cc(C)c(Nc2nc(-c3ccc(N4CCN(C)CC4)cc3)cs2)cc1C [Compound 322]
5.30 to 5.96	Cc1ccc(-n2cccc2)cc1Nc1nc(-c2ccc(N3CCN(C)CC3)cc2)cs1 [Compound 323]
> 6.70	Cc1ccc(C(C)C)cc1Nc1nc(-c2ccc(-n3ccnc3)cc2)cs1 [Compound 324]
5.30 to 5.96	Cc1ccc(C(C)C)cc1Nc1nc(-c2ccc(-n3ccnc3)nc2)cs1 [Compound 325]
> 6.70	Cc1cn(-c2ccc(-c3csc(Nc4cc(C(C)C)ccc4C)n3)cc2)cn1 [Compound 326]
> 6.70	Cc1cn(-c2ccc(-c3csc(Nc4cc(C(C)C)ccc4C)n3)cn2)cn1 [Compound 327]
6.00 to 6.70	CN1CCN(c2ccc(-c3csc(Nc4ccc5c(c4)OCO5)n3)cn2)CC1 [Compound 328]
4.52 to 5.00	CCN(CC)c1ccc(Nc2nc(-c3ccc(N4CCN(C)CC4)nc3)cs2)c(C)c1 [Compound 329]
5.30 to 5.96	CN1CCN(c2ccc(-c3csc(Nc4ccc(Cl)c(Cl)c4)n3)cn2)CC1 [Compound 330]
5.00 to 5.29	Cc1cn(-c2ccc(-c3csc(Nc4cc5cn[nH]c5cc4C)n3)cn2)cn1 [Compound 331]
5.30 to 5.96	CCN(CC)c1cc(Nc2nc(-c3ccc(N4CCN(C)CC4)nc3)cs2)c(C)cc1C [Compound 332]
6.00 to 6.70	CN1CCN(c2ccc(-c3csc(Nc4cccc5ccccc45)n3)cn2)CC1 [Compound 333]
> 6.70	CCN(C)c1cc(Nc2nc(-c3ccc(-n4ccnc4)cc3)cs2)c(C)cc1C [Compound 334]
> 6.70	CCN(C)c1cc(Nc2nc(-c3ccc(-n4cnc(C)c4)cc3)cs2)c(C)cc1C [Compound 335]
> 6.70	CCN(C)c1cc(Nc2nc(-c3ccc(-n4cnc(C)c4)nc3)cs2)c(C)cc1C [Compound 336]
> 6.70	CCCN(CC)c1ccc(C)c(Nc2nc(-c3ccc(-n4cnc(C)c4)cc3)cs2)c1 [Compound 337]
4.52 to 5.00	COc1ccc(-c2coc(Nc3ccccc3)n2)cc1 [Compound 338]
5.30 to 5.96	COc1ccc(Nc2nc(-c3ccc(Cl)cc3)co2)cc1 [Compound 339]
5.30 to 5.96	COc1ccc(Nc2nc(-c3ccc(-n4ccnc4)cc3)co2)cc1 [Compound 340]
> 6.70	CCN(CC)c1ccc(C)c(Nc2nc(-c3cnc(-n4cnc(C)c4)nc3)cs2)c1 [Compound 341]
> 6.70	CCN(CC)c1ccc(Nc2nc(-c3cnc(-n4cnc(C)c4)nc3)cs2)c(C)c1 [Compound 342]
